Results published in patent publication US20050074879A1, “Antisense oligonucleotide modulation of STAT3 expression” (priority 2000, published 2005).
Oligonucleotides are written 5' to 3', each unit as a sugar letter and its base; * is a phosphorothioate linkage, no mark a phosphodiester; rarer units and linkages stand in square brackets, end groups in braces. Plain capitals give the bases only. e = 2'-O-(2-methoxyethyl) (MOE); [5mC] = 5-methylcytosine; d = 2'-deoxy (DNA)

Tests used:
[1] = system: Human STAT3 mRNA; assay: Inhibition of human STAT3 mRNA expression in U266 cells, Northern blot; format: cell-based; conditions: for % mRNA INHIBITION / % mRNA EXPRESSION: U266 cells, 2.5 μM oligonucleotide, electroporation, 24 hours; for % mRNA EXPRESSION: percent of control
Procedure: U266 human myeloma cell lines (originally obtained from American Type Culture Collection) were maintained in RPMI 1640 medium supplemented with 10% fetal calf serum. Cells (15×10^6 cells in PBS) were transfected with oligonucleotides at 200V with a single 6-millisecond pulse using a BTX Electro Square Porator T820 (Genetronics, San Diego Calif.). The cells were incubated for 24 hours before RNA extraction.
Total cellular RNA was isolated using the Rneasy kit (Qiagen, Santa Clarita, Calif.). Northern blotting was perfomed on 15 μg of RNA using a cDNA probe prepared from MB-MDA 468 RNA by standard RT-PCR followed by a nested primer reaction. Signals were quantitated using a Molecular Dynamics Phosphorimager.
In order to examine the importance of STAT3 expression in multiple myeloma cells, a series of 20mer STAT3 antisense oligonucleotides were designed and synthesized, using phosphorothioate chemistry and incorporating 2′-O-methoxyethyl modifications to improve hybridization affinity and nuclease resistance.

[2] = system: Mouse STAT3 mRNA; assay: Inhibition of mouse STAT3 mRNA expression in BCL1 cells (electroporation; RNase protection/Northern blot); format: cell-based; parameters: % mRNA INHIBITION: dose or concentration left out as unconfirmed; conditions: BCL1 cells electroporated with oligonucleotide, RNA collected 24 hours later; for % mRNA EXPRESSION: control 100%
Procedure: The B lymphoma cell line, BCL1 was obtained from ATCC (Rockville, Md.). BCL1 cells were cultured in RPMI 1640 medium.
BCL1 cells (5×10^6 cells in PBS) were transfected with oligonucleotides by electroporation, at 200V, […]. using a BTX Electro Cell Manipulator 600 (Genetronics, San Diego, Calif.). For an initial screen, BCL1 were electroporated with […] oligonucleotide and RNA collected 24 hours later. Controls without oligonucleotide were subjected to the same electroporation conditions.
Total cellular RNA was isolated using the RNEASY7 kit (Qiagen, Santa Clarita, Calif.). RNAse protection experiments were conducted using RIBOQUANT™ kits and template sets according to the manufacturer's instructions (Pharmingen, San Diego, Calif.). Northern blotting was performed as described in Chiang, M-Y. et al. (J. Biol. Chem., 1991, 266, 18162-18171), using a rat cDNA probe prepared by Xho I/Sal I restriction digest of psvsport-1 plasmid (ATCC, Rockville, Md.). mRNA levels were quantitated using a PhosphorImager (Molecular Dynamics, Sunnyvale, Calif.).

| Substance | % mRNA INHIBITION [1] [%] | % mRNA EXPRESSION [1] [%] | % mRNA INHIBITION [2] [%] | % mRNA EXPRESSION [2] [%] | also measured |
| --- | --- | --- | --- | --- | --- |
| 17148 (antisense ACTCAAACTGCCCTCCTGCT; listed as DNA, chemistry not fully specified) [compound 17148] | 4.9 | 95.1 | 31 | 69 | Percent inhibition of STAT3 expression ([1]; Oligo concentration 2.5 μM): 8%; Percent inhibition of STAT3 expression ([1]; Oligo concentration 5 μM): 54%; Percent inhibition of STAT3 expression ([1]; Oligo concentration 10 μM): 60% |
| 17153 (antisense eA*eT*e[5mC]*eA*e[5mC]*dC*dC*dA*dC*dA*dC*dT*dC*dA*dC*eT*e[5mC]*eA*eT*eT) [compound 17153] | – | – | 56 | 44 | – |
| 17154 (antisense e[5mC]*e[5mC]*eT*eT*eT*dG*dC*dC*dT*dC*dC*dC*dT*dT*dC*eT*eG*e[5mC]*eT*e[5mC]) [compound 17154] | – | – | 20 | 80 | – |
| 17155 (antisense eT*eG*eA*eA*eA*dA*dA*dG*dG*dA*dG*dG*dG*dC*dA*eG*eG*e[5mC]*eG*eG) [compound 17155] | – | – | 22 | 78 | – |
| 17156 (antisense e[5mC]*eA*e[5mC]*e[5mC]*eA*dG*dG*dA*dG*dG*dC*dA*dC*dT*dT*eG*eT*e[5mC]*eT*eA) [compound 17156] | – | – | 60 | 40 | – |
| 17157 (antisense eA*eA*e[5mC]*e[5mC]*eT*dC*dC*dT*dG*dG*dG*dC*dT*dT*dA*eG*eT*e[5mC]*e[5mC]*eT) [compound 17157] | – | – | 47 | 53 | – |
| 113170 (eA*eG*e[5mC]*eT*eG*dA*dT*dT*d[5mC]*d[5mC]*dA*dT*dT*dG*dG*eG*e[5mC]*e[5mC]*eA*eT) [compound 113170] | 10.4 | 89.6 | – | – | – |
| 113171 (e[5mC]*e[5mC]*eA*eG*eG*dA*dG*dA*dT*dT*dA*dT*dG*dA*dA*eA*e[5mC]*eA*e[5mC]*e[5mC]) [compound 113171] | – | 110.2 | – | – | – |
| 113172 (antisense eA*e[5mC]*e[5mC]*eG*eT*dG*dT*dG*dT*d[5mC]*dA*dA*dG*d[5mC]*dT*eG*e[5mC]*eT*eG*eT) [compound 113172] | 3.9 | 96.1 | – | – | – |
| 113173 (antisense e[5mC]*e[5mC]*eA*eT*eT*dG*dG*dG*dA*dA*dG*d[5mC]*dT*dG*dT*e[5mC]*eA*e[5mC]*eT*eG) [compound 113173] | – | 119 | – | – | – |
| 113175 (antisense eG*e[5mC]*eG*eG*e[5mC]*dT*dA*dT*dA*d[5mC]*dT*dG*d[5mC]*dT*dG*eG*eT*e[5mC]*eA*eA) [compound 113175] | 24.2 | 75.8 | – | – | – |
| 113178 (antisense eT*eG*eA*eT*eT*d[5mC]*dT*dT*d[5mC]*d[5mC]*d[5mC]*dA*d[5mC]*dA*dG*eG*e[5mC]*eA*e[5mC]*e[5mC]) [compound 113178] | – | 143.9 | – | – | – |
| 113181 (antisense e[5mC]*e[5mC]*e[5mC]*eG*e[5mC]*d[5mC]*dA*dG*d[5mC]*dT*d[5mC]*dA*d[5mC]*dT*d[5mC]*eA*e[5mC]*eG*eA*eT) [compound 113181] | – | 105.4 | – | – | – |
| 113184 (antisense e[5mC]*eG*e[5mC]*e[5mC]*eT*d[5mC]*dT*dT*d[5mC]*d[5mC]*dA*dG*dT*d[5mC]*dA*eG*e[5mC]*e[5mC]*eA*eG) [compound 113184] | – | 104.3 | – | – | – |
| 113187 (antisense e[5mC]*e[5mC]*eG*e[5mC]*eT*d[5mC]*d[5mC]*dA*d[5mC]*d[5mC]*dA*d[5mC]*dA*dA*dA*eG*eG*e[5mC]*eA*e[5mC]) [compound 113187] | 44.1 | 55.9 | – | – | Percent inhibition of STAT3 expression ([1]; Oligo concentration 2.5 μM): 44%; Percent inhibition of STAT3 expression ([1]; Oligo concentration 5 μM): 56%; Percent inhibition of STAT3 expression ([1]; Oligo concentration 10 μM): 75% |
| 113189 (antisense eT*eT*eG*eT*eG*dT*dT*dT*dG*dT*dG*d[5mC]*d[5mC]*d[5mC]*dA*eG*eA*eA*eT*eG) [compound 113189] | – | 163.9 | – | – | – |
| 113207 (antisense eA*eT*e[5mC]*eA*e[5mC]*d[5mC]*d[5mC]*dA*d[5mC]*dA*dT*dT*d[5mC]*dA*d[5mC]*eT*e[5mC]*eA*eT*eT) [compound 113207] | – | 123.6 | – | – | – |
| 113209 (antisense eA*eA*eA*eA*eG*dT*dG*d[5mC]*d[5mC]*d[5mC]*dA*dG*dA*dT*dT*eG*e[5mC]*eT*e[5mC]*eA) [compound 113209] | 28.6 | 71.4 | – | – | Percent inhibition of STAT3 expression ([1]; Oligo concentration 2.5 μM): 43%; Percent inhibition of STAT3 expression ([1]; Oligo concentration 5 μM): 54%; Percent inhibition of STAT3 expression ([1]; Oligo concentration 10 μM): 73% |
| 113210 (antisense eT*eA*eA*eA*eA*dG*dT*dG*d[5mC]*d[5mC]*d[5mC]*dA*dG*dA*dT*eT*eG*e[5mC]*eT*e[5mC]) [compound 113210] | 27.8 | 72.2 | – | – | Percent inhibition of STAT3 expression ([1]; Oligo concentration 2.5 μM): 36%; Percent inhibition of STAT3 expression ([1]; Oligo concentration 5 μM): 50%; Percent inhibition of STAT3 expression ([1]; Oligo concentration 10 μM): 76% |
| 113211 (antisense eA*eA*eG*e[5mC]*eA*dG*dA*dT*d[5mC]*dA*d[5mC]*d[5mC]*d[5mC]*dA*d[5mC]*eA*eT*eT*e[5mC]*eA) [compound 113211] | – | 116.5 | – | – | – |
